{"source": "patent US20030082231A1", "about": "“Coating for orally administered compositions” (priority 2001, published 2003)", "origin": "cited, not measured here", "test_system": "sister chromatid exchanges (SCE) damage induced by benzo(a)pyrene"}
{"substance": "chlorophyllin", "values": [{"measurement": "genotoxic inhibition (frequency of sister chromatid exchanges)", "setting": "SCE damage induced by benzo(a)pyrene, in vivo", "value": "about 80%"}, {"measurement": "cell proliferation kinetics (CPK)", "setting": "chlorophyllin plus benzo(a)pyrene", "value": "inhibition of the cell proliferation kinetics"}]}
